For seven molecules, GI50 and TGI results are on record in PubChem BioAssay (NCI).

The structures appear in SMILES notation. “And” between values parts separate entries of the source, which are not always exact repeats. Equal entries are not always repeated.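 Briefly, cells in 96-well plates were exposed to five compound concentrations for 48 h, and endpoints were estimated by linear interpolation. GI50: concentration for 50% inhibition of growth. At the TGI there is no net growth.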

Holding throughout (experiment): growth of human tumour cells (NCI), 48 h
Assay [1] deals with COLO 205 colon.
The test system of assay [2] is HCT-15 colon.
Assay [3] concerns K-562 leukemia.
The test system of assay [4] is KM12 colon.
Assay [5] relates to OVCAR-3 ovarian.
In assay [6] the test system is OVCAR-5 ovarian.
Assay [7] relates to SK-MEL-28 melanoma.
Assay [8] has as its system SNB-19 CNS.
In assay [9] the test system is SR leukemia.
The subject of assay [10] is UACC-62 melanoma.

`Fc1ccc2[nH]c3c(NCCCN4CCOCC4)ncnc3c2c1`: the GI50 is 20.7 µM in assay [1]; 32.1 µM in assay [2]; 26.2 µM in assay [3]; 48.8 µM in [4]; > 100 µM in assay [5]; 50.5 µM in assay [6]. Besides, the GI50 in [7] was 70.4 µM; in assay [8], > 100 µM; in assay [9] it was 28.8 µM; in assay [10], 17.5 µM. For the same molecule, the TGI is 42.4 µM in [1]; > 100 µM in assay [2]; > 100 µM in assay [3]; > 100 µM in [4]; > 100 µM in [5]; > 100 µM in assay [6]. For the same molecule, the TGI in assay [7] is > 100 µM; in assay [8], > 100 µM; in [9], > 100 µM; in assay [10], 40.4 µM.
Regarding `Cc1cc(C(C#N)c2ccc(Cl)cc2)c(Cl)cc1NC(=O)c1cc(I)cc(I)c1O` (stereo not given), the GI50 was 15.2 µM and 16.2 µM in assay [1]; 5.25 µM and 15.8 µM in assay [2]; 15.5 µM in assay [3]; 13.7 µM and 15.9 µM in assay [4]; 8.33 µM and 14.2 µM in assay [5]; 11 µM and 15.5 µM in assay [6]. In addition, the GI50 was 5.42 µM and 14.8 µM in assay [7]; 5.97 µM and 10.4 µM in [8]; 5.97 µM and 9.04 µM in assay [9]; 2.96 µM and 8.79 µM in assay [10]. The TGI in assay [1] is 28.8 µM and 29.7 µM; in [2] it was 19.8 µM and 31.7 µM; in [3], 47.5 µM; in assay [4], 29.8 µM and 30.5 µM; in assay [5], 23.5 µM and 28.5 µM; in assay [6], 29.2 µM and 32 µM. For the same molecule, the TGI in assay [7] is 19.7 µM and 30.3 µM; in assay [8], 27.1 µM and 27.5 µM; in assay [9], 34.5 µM and > 100 µM; in assay [10], 11.5 µM and 23.8 µM.
In the case of `O=C(CCl)N1c2ccccc2Sc2c1ccc1ccccc21`, the GI50 was 1.87 µM in assay [1]; 1.92 µM in assay [2]; 2.98 µM in [3]; 6.31 µM in [4]; 1.86 µM in [5]; 2.16 µM in assay [6]. Besides, the GI50 is 2.98 µM in assay [7], 4.37 µM in assay [8], 2.4 µM in [9] and 2.07 µM in assay [10]. Besides, the TGI in [1] came to 4.06 µM; in assay [2] it was 4.83 µM; in assay [3], 13 µM; in assay [4], 20.1 µM; in assay [5], 3.26 µM; in assay [6] it was 5.07 µM. Further, the TGI in [7] came out at 7.56 µM; in assay [8] it was 15.1 µM; in assay [9], 9.55 µM; in assay [10] it was 4.9 µM.
Regarding `O=C1C(Cl)=C(Nc2cccc(O)c2)C(=O)N1c1cc(Cl)c(Cl)cc1Cl`, the GI50 was 18 µM in assay [1]; 15.1 µM in assay [2]; 17.4 µM in assay [3]; 16.5 µM in assay [4]; 15.9 µM in [5]; 24.2 µM in assay [6]. Besides, the GI50 in assay [7] was 18.5 µM; in [8], 20.4 µM; in [9], 10.3 µM; in [10], 17.2 µM. For the same molecule, the TGI in [1] was 38 µM; in assay [2], 30.1 µM; in assay [3], 40.3 µM; in assay [4], 34.3 µM; in assay [5], 36.1 µM; in [6], 48.2 µM. Besides, the TGI in [7] turned out to be 36.3 µM; in assay [8], 45.5 µM; in assay [9] it was 59.7 µM; in assay [10] it was 32.5 µM.
Turning to `Nc1cc(N)c(N)cc1N`, the GI50 was 1.81 µM in assay [1]; 2.01 µM in [2]; 2.92 µM in assay [3]; 2.88 µM in [4]; 1.97 µM in assay [5]; 2.18 µM in assay [6]. Moreover, the GI50 in [7] was 2.03 µM; in assay [8], 3.42 µM; in assay [9] it was 2.56 µM; in assay [10] it was 1.55 µM. Also, the TGI in assay [1] is 3.43 µM; in assay [2], 4.68 µM; in assay [3], > 100 µM; in [4] it was 10.7 µM; in assay [5] it was 4.46 µM; in assay [6], 4.99 µM. Moreover, the TGI in assay [7] is 3.88 µM; in assay [8] it was 14.3 µM; in assay [9], 7.66 µM; in [10], 2.97 µM.
As for `CC(=O)O[C@@H]1CC2C(C)(C)CCCC2(C)C2=C1C(=O)C(C(C)C)=CC2=O` (stereo not given in full), the GI50 in assay [1] was 1.88 µM; in assay [2], 0.536 µM; in [3] it was 1.69 µM; in assay [4], 1.14 µM; in assay [5] it was 1.51 µM; in assay [6] it was 2.26 µM. For the same molecule, the GI50 was 0.691 µM in assay [7], 0.87 µM in assay [8], 0.653 µM in assay [9] and 0.458 µM in assay [10]. Besides, the TGI in assay [1] was 4.11 µM; in assay [2], 2.49 µM; in assay [3], > 100 µM; in assay [4] it was 2.68 µM; in assay [5], 3.36 µM; in [6], 5.32 µM. Also, the TGI in assay [7] is 3.43 µM; in [8], > 100 µM; in assay [9] it was > 100 µM; in assay [10], 2.07 µM.
Consider `CC(=O)Nc1ccc2c(c1)oc(=O)c1cc(NC(C)=O)ccc12`, for which the GI50 was 41.7 µM in assay [1]; > 100 µM in [2]; > 100 µM in [3]; 21.7 µM in [4]; > 100 µM in assay [5]; > 100 µM in [6]. The GI50 in assay [7] is > 100 µM; in assay [8] it was > 100 µM; in assay [9] it was 8.52 µM; in [10], 63.4 µM. For the same molecule, the TGI in [1] is > 100 µM; in assay [2], > 100 µM; in [3] it was > 100 µM; in assay [4], 52.5 µM; in assay [5] it was > 100 µM; in [6] it was > 100 µM. The TGI is > 100 µM in assay [7], > 100 µM in assay [8], 77.4 µM in [9] and > 100 µM in [10].
